Type in all cases: in vivo, Swiss male mice
What all share (conditions): Mus musculus, po, read-out: % inhibition of contortions

Assay [1] concerns contortions induced by acetylcholine bromide in mice. The experiment in a line: Analgesic activity: inhibition of the contortions induced by acetylcholine bromide in mice (Collier's method). How it is done:
(§1) Swiss male mice weighing 17-22 grams are used. Groups containing a minimum of 4 animals are used.
Contortions are induced by the intraperitoneal injection of acetylcholine bromide (7.2 mg/kg, dissolved in physiological serum, a volume of 10 ml/kg of weight being administered) at the start of the experiment and the number of contortions is counted for 5 minutes, this being the reference number for each animal (mice with fewer than 2 contortions are rejected). Immediately afterwards, the test products are administered orally, at a dose of 160 mg/kg, in the form of a suspension or solution in gum arabic at a concentration of 5% (w/v) in distilled water. 40 and 120 minutes after the treatment, acetylcholine bromide is administered again, the contortions are noted and the readings at 40 and 120 minutes are evaluated, taking the contortions of the initial reading as the reference.

Assay [2] relates to contortions induced by acetic acid in mice. The experiment in a line: Analgesic activity: inhibition of the contortions induced by acetic acid in mice (Koster's method). How it is done:
Swiss male mice weighing 17-22 grams are used. Groups containing a minimum of 4 animals for each dose are used.
Each product is suspended or dissolved in gum arabic at a concentration of 5% (w/v) in distilled water and is administered orally, at a dose of 160 mg/kg, 60 minutes before the injection of acetic acid.

The subject of assay [3] is contortions induced by phenylbenzoquinone in mice. As to the kind of experiment: Analgesic activity: inhibition of the contortions induced by phenylbenzoquinone in mice (Siegmund's method). The procedure:
Analgesic activity: Inhibition of the contortions induced by phenylbenzoquinone in mice--Siegmund's method (E. Siegmund, R. Cadmus and G. Lu, Proc Soc. Exp. Biol. Med., 95, 729 (1957))
as §1
Contortions are induced by the intraperitoneal injection of phenyl-p-benzoquinone (25 ml/kg of a 0.02% solution in a solution of ethanol at a concentration of 5% (v/v) in distilled water, with Evans blue in a proportion of 0.1% (w/v)) and are counted for 15 minutes as from the time of injection. Each product is suspended or dissolved in gum arabic at a concentration of 5% (w/v) in distilled water and is administered orally, at a dose of 160 mg/kg, 60 minutes before the injection of phenylbenzoquinone. The inhibition of contortions due to each product is determined, taking as the reference the contortions in a group of control animals to which only the vehicle is administered orally 60 minutes before the phenylbenzoquinone.

Setting [4] is: 160 mg/kg, administered orally, acetylcholine bromide 7.2 mg/kg i.p., mean of the values at 40 and 120 minutes.
The mark [5] stands for this setting: 160 mg/kg, administered orally 60 minutes before acetic acid i.p., contortions counted for 15 minutes.
Where [6] appears, read: 160 mg/kg, administered orally 60 minutes before phenylbenzoquinone i.p., contortions counted for 15 minutes.

Where two headings read alike, the source gives them in different places.

With `Cn1ccnc1C(C)(O)c1cccc(C(F)(F)F)c1` (stereo not drawn) [Example 128], the inhibition in vivo at 160 mg/kg in assay [1] (setting [4]) was determined as 82.5%; in assay [2] (setting [5]), 52.5%; in assay [3] (setting [6]), 67.5%.

As to `CC(=O)Oc1ccccc1C(=O)O` [Acetylsalicylic acid, reference compound], the inhibition in vivo at 160 mg/kg is 92.5% in assay [1], 72.5% in assay [2] and 75% in assay [3].

With `CN(C)CCOC(c1ccccc1)c1ccnn1C` (stereo not drawn) [Example 31], the inhibition in vivo at 160 mg/kg in assay [2] (setting [5]) and in assay [3] (setting [6]) was 80% each time.

With `CN1CCOC(c2ccccc2)c2ccccc2C1` (stereo not drawn) [Nefopam, reference compound], the inhibition in vivo at 160 mg/kg was 100% in assay [1] (setting [4]), 98% in assay [2] (setting [5]) and 97.5% in assay [3] (setting [6]).

With `CN(C)CCOC(c1ccccc1)c1c(Br)cnn1C` (stereo not drawn) [Example 37], the values for the inhibition in vivo at 160 mg/kg in assay [2] (setting [5]) and in assay [3] (setting [6]) were 72.5% and 77.5%, respectively.

Take `CC(=O)Nc1ccc(O)cc1` [Paracetamol, reference compound]: the inhibition in vivo at 160 mg/kg in assay [1] (setting [4]) is 72.5%; in assay [2] (setting [5]), 20%; in assay [3] (setting [6]) it was 47.5%.

In the case of `CCCCn1ccnc1C(O)c1ccc(Cl)cc1Cl` (stereo not drawn) [Example 115], the inhibition in vivo at 160 mg/kg in assay [2] (setting [5]) turned out to be 50%; in assay [3] (setting [6]), 39.5%.
